Measurements taken from patent US10314883B2, “Compositions and methods for regulating blood pressure” (University of Virginia Patent Foundation, priority 2015, dated 2019).
Where two headings read alike, the source gives them in different places. No end group written: not given here.

Assays:
[1] = system: thoracodorsal arteries (TDA); assay: ATP release from intact TDA (luciferin:luciferase); type: cell-based, mouse; conditions: for ATP release from intact TDAs in response to agonist: five minutes of agonist, ARL67156 300 μmol/L
Method: Mouse TDAs of equal length were isolated and washed thoroughly to eliminate red blood cells. Vessels were placed in a well of a 96-well plate containing Krebs-HEPES solution supplemented with 1% BSA at 37° C. for 30 minutes to allow for degradation of any ATP released as a result of mechanical stimulation during manipulation of the vessel. For measurements performed on HEK cells: 24 hours after transfection, cells cultured in 24-well plates were cautiously washed twice with warm Krebs-HEPES-BSA and 300 μl of Krebs-HEPES-BSA was added to each well after the last wash as previously described. The plate was then kept in the incubator at 37° C. with 5% CO2 for 30 minutes to allow for degradation of ATP eventually released during the washes.
The ectonucleotidase inhibitor ARL67156 (300 μmol/L) was applied to each well. When indicated, ^10Panx1 (300 μmol/L) or the peptides analog to intracellular regions of Panx1 (3 μmol/L) were added along with the ARL67156. After a 30 minute incubation at 37° C. with the inhibitor(s), phenylephrine (100 μmol/L) or equivalent volume of Krebs-HEPES-BSA was added and the plate was kept at 37° C. After five minutes of phenylephrine stimulation, the media surrounding the TDA or the cells was transferred to an Eppendorf tube and centrifuged for five minutes at 5,000×g to eliminate eventual cell debris. Fifty microliters of the supernatant was transferred to a white-wall 96 well plate and placed in a FluoStar Omega luminometer. The ATP concentration was measured by adding 50 μL of luciferin:luciferase reagent (ATP bioluminescence assay kit HSII; Roche), which was injected into each well and the luminescence was immediately recorded. Data are expressed as a percent increase in ATP concentration compared to unstimulated condition. Each stimulated condition was compared to unstimulated condition performed on the same day, and all experiments were performed on at least 15 wells of HEK cells or three TDAs. Data were analyzed using a Kruskall Wallis test (non-parametric one-way ANOVA) followed by Dunn's post-hoc test.
To determine if the TDA response involved release of ATP, we dissected TDAs from C57Bl/6 mice and measured the accumulation of extracellular ATP in response to various agonists in the medium (FIG. 1E, inset). The TDAs were placed in a well of a 96 well plate in Krebs-HEPES solution and treated with the ectonucleotidase inhibitor ARL67156 for 30 minutes. Next, arteries were treated with a contractile agonist for five minutes and the amount of ATP in the media surrounding the vessel was determined using the ATP bioluminescence assay kit HSII (Roche).

[2] = system: thoracodorsal arteries (TDA); conditions: for EC50: read-out: EC50 of agonist for TDA constriction
[3] = system: thoracodorsal arteries (TDA); assay: tissue or blood; conditions: Mus musculus
[4] = system: thoracodorsal arteries (TDA); assay: Pressure myography: agonist-induced constriction of pressurized TDAs from C57Bl/6 mice with pannexin inhibitors or Panx1 mimetic peptides; type: cell-based, mouse; conditions: for effect on phenylephrine-induced constriction of pressurized TDAs: TAT-linked peptides, C57Bl/6 TDAs
Method: The contractile responses of pressurized thoracodorsal arteries (TDA) were measured as previously described. Briefly, TDA were isolated and placed in cold Krebs-HEPES until cannulation in a pressure arteriograph (Danish MyoTechnology). After a 30 minute equilibration period, cumulative concentrations of contractile agonists were applied to the TDA pressurized at 80 mmHg, and the vessel was visualized with an Olympus IX-71 microscope attached to a Hamamatsu EM-CCD camera coupled to Slidebook imaging software. […] Lastly, maximal diameter was measured at the end of each experiment in calcium-free Krebs-HEPES supplemented with EGTA (1 mmol/L) and sodium nitroprusside (10 μmol/L). In cases where the vessels were not constricting to the contractile agonist, their viability was assessed by applying 40 mM KCl and only TDA reaching 30% of the maximal diameter were considered for analysis. The contractile responses, as well as the basal tone, are expressed as a percentage of the maximal diameter.
Using pressure arteriography on TDA dissected from C57Bl/6 mice (as described; and aortic ring contraction, as described), we measured the effect of pannexin inhibitors, probenecid and 10Panx1, on the contractile response upon stimulation with different vasoconstrictors: phenylephrine (FIG. 1A), noradrenaline (also called norepinephrine) (FIG. 1B), serotonin (also known as 5-HT) (FIG. 1C) and endothelin-1 (FIG. 1D). […] In contrast, ^10Panx1 and probenecid had no effect on contraction of TDA measured in response to cumulative concentrations of serotonin or endothelin-1 (FIGS. 1C-D; Table 1).
To determine the region of Panx1 necessary for channel activation in response to α1AR stimulation, we produced short peptides derived from the intracellular regions of the Panx1 channel. We generated two peptides mimicking unique mouse Panx1 (mPanx1) sequences in the first intracellular loop (IL1 and IL2) and two peptides mimicking unique mPanx1 sequences in the C-terminal region, one in second intracellular loop (CT1) and one in the C-terminal tail (CT2) (FIG. 4A scissors indicate caspase 3 cleavage site; Table 3). All peptides also contained a TAT sequence to facilitate entry into cells and we verified the intracellular localization of each peptide by immunofluorescence detection of the TAT sequence in TDAs pre-incubated with each peptide (FIG. 7A). We tested the effect of each peptide on phenylephrine-induced contractile responses in pressurized TDAs from C57Bl/6 mice (FIGS. 4B-E). […] Note that these differences in effects of phenylephrine were similar in magnitude to those observed in arteries from SMC-specific Panx1-knockout mice and littermate controls (FIG. 2C, Table 2).

[5] = TDAs from Cre^+/Panx1^FL mice, tamoxifen-injected (SMC Panx1 knockout)
[6] = TDAs from Cre^+/Panx1^WT mice, tamoxifen-injected
[7] = TDAs from Cre^−/Panx1^FL mice, tamoxifen-injected
[8] = TDAs from Cre^−/Panx1^WT mice, tamoxifen-injected
[9] = read-out: EC50 of agonist for TDA constriction, TDAs from Cre^+/Panx1^FL mice, tamoxifen-injected (SMC Panx1 knockout)
[10] = read-out: EC50 of agonist for TDA constriction, TDAs from Cre^+/Panx1^WT mice, tamoxifen-injected
[11] = read-out: EC50 of agonist for TDA constriction, TDAs from Cre^−/Panx1^FL mice, tamoxifen-injected
[12] = read-out: EC50 of agonist for TDA constriction, TDAs from Cre^−/Panx1^WT mice, tamoxifen-injected
[13] = in presence of ^10Panx1 (300 μmol/L) or probenecid (2 mmol/L)
[14] = pannexin inhibitors, ^10Panx1 300 μmol/L, probenecid 2 mmol/L
[15] = in presence of the named peptide

CC[C@H](C)[C@H](NC(=O)[C@H](CC(=O)O)NC(=O)[C@H](CC(C)C)NC(=O)[C@H](Cc1c[nH]cn1)NC(=O)[C@@H]1CSSC[C@H](N)C(=O)N[C@@H](CO)C(=O)N[C@H]2CSSC[C@H](NC(=O)[C@H](CCC(=O)O)NC(=O)[C@H](CCCCN)NC(=O)[C@H](CC(=O)O)NC(=O)[C@H](CCSC)NC(=O)[C@H](CC(C)C)NC(=O)[C@H](CO)NC(=O)[C@H](CO)NC2=O)C(=O)N[C@@H](C(C)C)C(=O)N[C@@H](Cc2ccc(O)cc2)C(=O)N[C@@H](Cc2ccccc2)C(=O)N1)C(=O)N[C@H](C(=O)N[C@@H](Cc1c[nH]c2ccccc12)C(=O)O)[C@@H](C)CC [Endothelin-1, endothelin-1]
ATP release from intact TDAs in response to agonist [1]: neither serotonin nor endothelin-1 promoted ATP release
EMAX of agonist for TDA constriction [2, 5]: 38.9 ± 6.90 percentage of maximal diameter
EMAX of agonist for TDA constriction [2, 6]: 42.5 ± 4.82 percentage of maximal diameter
EMAX of agonist for TDA constriction [2, 7]: 42.2 ± 6.50 percentage of maximal diameter
EMAX of agonist for TDA constriction [2, 8]: 41.8 ± 4.95 percentage of maximal diameter
EC50 [2, 5]: 30.1 ± 14.6 nM
EC50 [2, 6]: 5.64 ± 2.94 nM
EC50 [2, 7]: 3.77 ± 0.56 nM
EC50 [2, 8]: 18.4 ± 10.9 nM

NC[C@H](O)c1ccc(O)c(O)c1 [Noradrenaline, noradrenaline]
EMAX of agonist for TDA constriction [2, 5]: 56.4 ± 5.61 percentage of maximal diameter
EMAX of agonist for TDA constriction [2, 6]: 48.2 ± 1.82 percentage of maximal diameter
EMAX of agonist for TDA constriction [2, 7]: 45.6 ± 5.40 percentage of maximal diameter
EMAX of agonist for TDA constriction [2, 8]: 41.4 ± 5.10 percentage of maximal diameter
EC50 [3, 9]: 50500 ± 24800 nM
EC50 [3, 10]: 6780 ± 3200 nM
EC50 [3, 11]: 10300 ± 1300 nM
EC50 [3, 12]: 6280 ± 1450 nM

CCCN(CCC)S(=O)(=O)c1ccc(C(=O)O)cc1 [Probenecid]
EMAX of endothelin-1 for TDA constriction [4, 13]: 34.6 ± 4.50 percentage of maximal diameter
EMAX of noradrenaline for TDA constriction [4, 13]: 74.9 ± 3.04 percentage of maximal diameter
EMAX of phenylephrine for TDA constriction [4, 13]: 72.6 ± 3.51 percentage of maximal diameter
EMAX of serotonin for TDA constriction [4, 13]: 39.5 ± 3.29 percentage of maximal diameter
effect on contraction of TDA in response to cumulative concentrations of serotonin or endothelin-1 [4, 14]: had no effect
effect on phenylephrine- and noradrenaline-mediated contraction of TDA [4, 14]: significantly inhibited

NCCc1c[nH]c2ccc(O)cc12 [Serotonin]
ATP release from intact TDAs in response to agonist [1]: neither serotonin nor endothelin-1 promoted ATP release
EMAX of agonist for TDA constriction [2, 5]: 38.2 ± 5.60 percentage of maximal diameter
EMAX of agonist for TDA constriction [2, 6]: 40.1 ± 4.59 percentage of maximal diameter
EMAX of agonist for TDA constriction [2, 7]: 30.4 ± 1.78 percentage of maximal diameter
EMAX of agonist for TDA constriction [2, 8]: 36.1 ± 2.68 percentage of maximal diameter
EC50 [3, 9]: 14.2 ± 5.53 nM
EC50 [3, 10]: 40.7 ± 12.2 nM
EC50 [3, 11]: 65.2 ± 40.9 nM
EC50 [3, 12]: 23.8 ± 5.07 nM

YGRKKQRRR [TAT]
effect on phenylephrine-induced constriction of pressurized TDAs [4]: no significant effect
EMAX of phenylephrine for TDA constriction [4, 15]: 32.0 ± 6.21 percentage of maximal diameter
effect on phenylephrine-induced ATP release from intact TDAs ([1]; phenylephrine 100 μmol/L, ^10Panx1 300 μmol/L, peptides 3 μmol/L): no effect

mPanx1 178-VGQSLWEISE-187 (SEQ ID NO: 4) linked with a TAT sequence (YGRKKQRRR) (also: linked with TAT sequence (YGRKKQRRR), end not given here; UniProt Q9JIP4 178-187, looked up, fragment) [IL1]
effect on phenylephrine-induced constriction of pressurized TDAs [4]: did not affect
EMAX of phenylephrine for TDA constriction [4, 15]: 32.3 ± 3.81 percentage of maximal diameter

mPanx1 381-IPTSLQTKGE-390 (SEQ ID NO: 6) linked with a TAT sequence (YGRKKQRRR) (also: linked with TAT sequence (YGRKKQRRR), end not given here; UniProt Q9JIP4 381-390, looked up, fragment) [CT2]
effect on phenylephrine-induced constriction of pressurized TDAs [4]: did not affect
EMAX of phenylephrine for TDA constriction [4, 15]: 52.3 ± 4.86 percentage of maximal diameter
